Data published in patent US6737064B2, “Method for the diagnosis of neoplastic tissue comprising administering a vasopermeability enhancing peptide of human interleukin-2” (The University of Southern California, priority 1996, dated 2004).

System: Raji tumor-bearing nude mice
Assay: In vivo vasopermeability / biodistribution study, Raji lymphoma model (tumor uptake of 125I-Lym-1 F(ab')2 after pre-treatment)
Experimental: The Raji lymphoma cell line was used to produce heterotransplants in 6-week-old female nude mice by the subcutaneous injection of a 0.2 ml inoculum consisting of 4×10^7 Raji cells and 4×10^6 human fetal fibroblast feeder cells in the left thigh. Three days prior to injection, the mice were irradiated with 400 rads using a cesium irradiator to ensure a high take rate of the implanted cells. The tumors were grown for 14-18 days until they grew to approximately 1 cm in diameter.
To test the relative effects of the immunoconjugates on the biodistribution and tumor uptake of Lym-1 or TNT-1 in tumor-bearing mice, separate groups of 4-5 mice were given intravenous injections of 30 μg of antibody alone or antibody conjugate. At 2.5 hr after injection, each group received 50 μCi of ^125I-labeled Lym-1 or TNT-1 F(ab′)2 fragment as tracer.
All animals were sacrificed 72 hr later, by sodium pentobarbital overdose, for biodistribution analysis. Various organs, blood, and tumor were removed, weighed, and samples were counted in a gamma counter. For each mouse, data were expressed as tumor:organ ratio (cpm per gram tumor/cpm per gram organ) and percent injected dose/gram (% ID/g).

Substance	Vasopermeability (% Lym-1/IL-2) (i.v., enhanced Lym-1 uptake relative to Lym-1/IL-2 conjugate, 30-40 pM of peptide per assay)	Vasopermeability activity (in words) (intravenous administration)
3C: synthetic IL-2 peptide, amino acids 22-58 (SEQ ID NO:1), permeability enhancing peptide (EMILNGINNYKNPKLTRMLTFKFYMPKKATELKHLQC; listed as Homo sapiens) [Fragment 3C]	0	–
E6: synthetic peptide fragment of human IL-2, amino acids 22-38 (QMILNGINNYKNPKLTR; UniProt P60568 42-58, looked up, fragment) [Fragment E6]	–	no activity
